Test results taken from US9353107B2 (Aurigene Discovery Technologies Limited, priority 2012, dated 2016).

Biological target: T1, recombinant human ALK enzyme (ALK WT) (Homo sapiens, UniProt Q9UM73)
T1 construct: purchased Carna Biosciences 08-518
Assay: ALK WT cell free enzymatic assay (TR-FRET)
Assay type: biochemical
Settings: 1 μM ATP; for IC50: 10 point dose response; for inhibition at 1 µM: compound at 1 μM; for inhibition at 1 µM / inhibition at 0.1 µM: 30 min pre-incubation; for inhibition at 0.1 µM: compound at 100 nM
Description: ALK Wild Type (WT) The ALK WT cell free assay was set up to evaluate the effects of these compounds as inhibitors of ALK enzyme. The enzymatic assay was standardized using recombinant human ALK enzyme (Cat#08-518) from Carna Biosciences using Ultra Light Poly GT (Cat# TRF 0100D) from Perkin Elmer as a substrate. TR-FRET (Time resolved fluorescence resonance energy transfer) detection technology was used for the read out. The final assay conditions were 50 mM HEPES pH 7.1, 10 mM MgCl2, 2 mM MnCl2, 0.01% BSA, 2.5 mM DTT, 0.1 mM Na3 VO4, 40 nM Ultra Light Poly GT, 2.5 ng ALK WT enzyme, 1 μM ATP and 125 nM Lance Eu-W1024 labeled anti phospho tyrosine antibody (Cat# AD0203, Perkin Elmer) in 384 well format. The assay reaction time with the substrate was 30 minutes after which the antibody detection mix is added. The TR-FRET signal (Excitation at 340 nm, Emission at 615 nm and 665 nm) was read with 50 μs delay time on Victor^3 V fluorimeter. The data is calculated using the ratio of reading at 665 nM to 615 nM. The final concentration of DMSO was 1% in the assay. Compounds were screened at 100 nM and 1 μM concentrations with pre-incubation of the enzymes with compound for 30 minutes. Each individual IC50 was determined using 10 point dose response curve generated by GraphPad Prism software Version 4 (San Diego, Calif., USA) using non linear regression curve fit for sigmoidal dose response (variable slope). Percentage inhibition at concentrations of 100 nM and 1.0 μM are given in table along with the IC50 (nM) details for selected examples.

T1 sequence (Q9UM73 1058-1620 limits assumed): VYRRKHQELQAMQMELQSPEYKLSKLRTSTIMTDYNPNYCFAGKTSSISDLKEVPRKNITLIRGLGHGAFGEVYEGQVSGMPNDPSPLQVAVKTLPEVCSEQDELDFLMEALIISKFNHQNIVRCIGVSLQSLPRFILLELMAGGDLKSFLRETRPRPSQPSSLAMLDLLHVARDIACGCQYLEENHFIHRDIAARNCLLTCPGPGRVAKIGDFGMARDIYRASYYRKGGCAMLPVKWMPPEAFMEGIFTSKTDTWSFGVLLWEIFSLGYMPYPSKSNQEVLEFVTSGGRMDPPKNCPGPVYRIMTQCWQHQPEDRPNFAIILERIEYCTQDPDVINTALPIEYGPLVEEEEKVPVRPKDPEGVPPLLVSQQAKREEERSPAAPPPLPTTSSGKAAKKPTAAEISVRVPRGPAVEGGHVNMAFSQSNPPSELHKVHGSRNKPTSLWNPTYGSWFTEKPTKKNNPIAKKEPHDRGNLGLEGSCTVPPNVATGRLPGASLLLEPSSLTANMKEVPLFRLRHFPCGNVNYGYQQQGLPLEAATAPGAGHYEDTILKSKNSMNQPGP

Row | IC50 [nM] | inhibition at 1 µM [%] | inhibition at 0.1 µM [%] | Structure (SMILES)
1 | 50 to 250 | 92 | – | CS(=O)(=O)Nc1cccc(-c2cnc3[nH]cc(-c4cnn(Cc5ccccc5F)c4)c3c2)c1 [Example 1, N-(3-(3-(1-(2-fluorobenzyl)-1H-pyrazol-4-yl)-1H-pyrrolo[2,3-b]pyridin-5-yl)phenyl)methanesulfonamide]
2 | > 250 | 33 | – | CS(=O)(=O)Nc1cccc(-c2cnc3[nH]cc(-c4cnn(Cc5cccc(C(F)(F)F)c5)c4)c3c2)c1 [Example 2, N-(3-(3-(1-(3-(trifluoromethyl)benzyl)-1H-pyrazol-4-yl)-1H-pyrrolo[2,3-b]pyridin-5-yl)phenyl) methanesulfonamide]
3 | > 250 | 65 | – | COc1ccc(Cn2cc(-c3c[nH]c4ncc(-c5cccc(NS(C)(=O)=O)c5)cc34)cn2)cc1 [Example 3, N-(3-(3-(1-(4-methoxybenzyl)-1H-pyrazol-4-yl)-1H-pyrrolo[2,3-b]pyridin-5-yl)phenyl)n methane sulfonamide]
4 | 50 to 250 | 95 | – | CS(=O)(=O)Nc1cccc(-c2cnc3[nH]cc(-c4cnn(Cc5cc(F)ccc5F)c4)c3c2)c1 [Example 4, N-(3-(3-(1-(2,5-difluorobenzyl)-1H-pyrazol-4-yl)-1H-pyrrolo[2,3-b]pyridin-5-yl)phenyl)methane sulfonamide]
5 | 50 to 250 | 69 | – | CS(=O)(=O)Nc1cccc(-c2cnc3[nH]cc(-c4cnn(Cc5ccc(F)cc5)c4)c3c2)c1 [Example 5, N-(3-(3-(1-(4-fluorobenzyl)-1H-pyrazol-4-yl)-1H-pyrrolo[2,3-b]pyridin-5-yl)phenyl) methanesulfonamide]
6 | < 50 | 99 | – | CS(=O)(=O)Nc1cccc(-c2cnc3[nH]cc(-c4cnn(Cc5cc(F)cc(F)c5)c4)c3c2)c1 [Example 6, N-(3-(3-(1-(3,5-difluorobenzyl)-1H-pyrazol-4-yl)-1H-pyrrolo[2,3-b]pyridin-5-yl)phenyl) methane sulfonamide]
7 | – | 53 | 20 | CS(=O)(=O)Nc1cccc(-c2cnc3[nH]cc(-c4cnn(Cc5cccc([N+](=O)[O-])c5)c4)c3c2)c1 [Example 7, N-(3-(3-(1-(3-nitrobenzyl)-1H-pyrazol-4-yl)-1H-pyrrolo[2,3-b]pyridin-5-yl)phenyl)methane sulfonamide]
8 | < 50 | 97 | 81 | CS(=O)(=O)Nc1cccc(-c2cnc3[nH]cc(-c4cnn(Cc5cccc(N)c5)c4)c3c2)c1 [Example 8, N-(3-(3-(1-(3-aminobenzyl)-1H-pyrazol-4-yl)-1H-pyrrolo[2,3-b]pyridin-5-yl)phenyl) methane sulfonamide]
9 | < 50 | 98 | – | CS(=O)(=O)Nc1cccc(-c2cnc3[nH]cc(-c4cnn(Cc5cccc(F)c5)c4)c3c2)c1 [Example 9, N-(3-(3-(1-(3-fluorobenzyl)-1H-pyrazol-4-yl)-1H-pyrrolo[2,3-b]pyridin-5-yl)phenyl)methanesulfonamide]
10 | 50 to 250 | 81 | – | CS(=O)(=O)Nc1cccc(-c2cnc3[nH]cc(-c4cnn(Cc5cccc(Cl)c5)c4)c3c2)c1 [Example 10, N-(3-(3-(1-(3-chlorobenzyl)-1H-pyrazol-4-yl)-1H-pyrrolo[2,3-b]pyridin-5-yl)phenyl)methane sulfonamide]
11 | < 50 | 90 | 64 | CS(=O)(=O)Nc1cccc(-c2cnc3[nH]cc(-c4cnn(Cc5cccc(C#N)c5)c4)c3c2)c1 [Example 11, N-(3-(3-(1-(3-cyanobenzyl)-1H-pyrazol-4-yl)-1H-pyrrolo[2,3-b]pyridin-5-yl)phenyl)methane sulfonamide]
12 | > 250 | 87 | – | CS(=O)(=O)Nc1cccc(-c2cnc3[nH]cc(-c4cnn(Cc5ccccc5)c4)c3c2)c1 [Example 12, N-(3-(3-(1-benzyl-1H-pyrazol-4-yl)-1H-pyrrolo[2,3-b]pyridin-5-yl)phenyl) methanesulfonamide]
13 | < 50 | 96 | – | COc1ccc(-c2cnc3[nH]cc(-c4cnn(Cc5cccc(F)c5)c4)c3c2)cc1NS(C)(=O)=O [Example 13, N-(5-(3-(1-(3-fluorobenzyl)-1H-pyrazol-4-yl)-1H-pyrrolo[2,3-b]pyridin-5-yl)-2-methoxyphenyl) methane sulfonamide]
14 | < 50 | 95 | – | COc1ccc(-c2cnc3[nH]cc(-c4c(C)nn(Cc5cccc(F)c5)c4C)c3c2)cc1NS(C)(=O)=O [Example 14, N-(5-(3-(1-(3-fluorobenzyl)-3,5-dimethyl-1H-pyrazol-4-yl)-1H-pyrrolo[2,3-b]pyridin-5-yl)-2-methoxyphenyl)methanesulfonamide]
15 | – | 75 | 33 | CCS(=O)(=O)Nc1cc(-c2cnc3[nH]cc(-c4c(C)nn(Cc5cccc(F)c5)c4C)c3c2)ccc1OC [Example 15, N-(5-(3-(1-(3-fluorobenzyl)-3,5-dimethyl-1H-pyrazol-4-yl)-1H-pyrrolo[2,3-b]pyridin-5-yl)-2-methoxyphenyl)ethanesulfonamide]
16 | – | 66 | 33 | COc1ccc(-c2cnc3[nH]cc(-c4cnn(Cc5cccc(F)c5)c4)c3c2)cc1NS(=O)(=O)C1CC1 [Example 16, N-(5-(3-(1-(3-fluorobenzyl)-1H-pyrazol-4-yl)-1H-pyrrolo[2,3-b]pyridin-5-yl)-2-methoxyphenyl)cyclopropanesulfonamide]
17 | – | 53 | 13 | CS(=O)(=O)Nc1cc(-c2cnc3[nH]cc(-c4cnn(Cc5cccc(F)c5)c4)c3c2)ccc1N1CCOCC1 [Example 17, N-(5-(3-(1-(3-fluorobenzyl)-1H-pyrazol-4-yl)-1H-pyrrolo[2,3-b]pyridin-5-yl)-2-morpholinophenyl)methanesulfonamide]
18 | 50 to 250 | 94 | 62 | CNS(=O)(=O)c1cc(-c2cnc3[nH]cc(-c4c(C)nn(Cc5cccc(F)c5)c4C)c3c2)ccc1OC [Example 18, 5-(3-(1-(3-fluorobenzyl)-3,5-dimethyl-1H-pyrazol-4-yl)-1H-pyrrolo[2,3-b]pyridin-5-yl)-2-methoxy-N-methylbenzenesulfonamide]
19 | 50 to 250 | 96 | 63 | COc1ccc(-c2cnc3[nH]cc(-c4c(C)nn(Cc5cc(F)cc(F)c5)c4C)c3c2)cc1NS(C)(=O)=O [Example 19]
20 | > 250 | 75 | 17 | CNS(=O)(=O)c1cc(-c2cnc3[nH]cc(-c4c(C)nn(Cc5cc(F)ccc5F)c4C)c3c2)ccc1OC [Example 20, 5-(3-(1-(2,5-difluorobenzyl)-3,5-dimethyl-1H-pyrazol-4-yl)-1H-pyrrolo[2,3-b]pyridin-5-yl)-2-methoxy-N-methylbenzenesulfonamide]
21 | < 50 | 96 | 82 | CNS(=O)(=O)c1cc(-c2cnc3[nH]cc(-c4c(C)nn(Cc5cc(F)cc(F)c5)c4C)c3c2)ccc1OC [Example 21, (3-(1-(3,5-difluorobenzyl)-3,5-dimethyl-1H-pyrazol-4-yl)-1H-pyrrolo[2,3-b]pyridin-5-yl)-2-methoxy-N-methylbenzenesulfonamide]
